Measurements reported in patent EP4567035A1, “NOVEL COMPOUND AS HYPOXIA-INDUCIBLE FACTOR 1(HIF-1) INHIBITOR OR VASCULAR ENDOTHELIAL GROWTH FACTOR (VEGF) INHIBITOR, AND PHARMACEUTICAL COMPOSITION COMPRISING SAME” (Nextgen Bioscience Co., Ltd., priority 2022, dated 2024).
Where two headings read alike, the source gives them in different places.

Assays:
HIF-1α = target: T1, HIF-1α (Homo sapiens, UniProt Q16665); assay: Analysis of HIF-1α protein expression (Western blot) in ARPE-19 cells under mixed hypoxic condition; format: cell-based; conditions: concentration range at which HIF-1α expression is reduced by 50% vs untreated control
T1 construct: endogenous in cells; host or cells: ARPE-19 (ATCC CRL-2302)
T1 sequence (Q16665 whole entry): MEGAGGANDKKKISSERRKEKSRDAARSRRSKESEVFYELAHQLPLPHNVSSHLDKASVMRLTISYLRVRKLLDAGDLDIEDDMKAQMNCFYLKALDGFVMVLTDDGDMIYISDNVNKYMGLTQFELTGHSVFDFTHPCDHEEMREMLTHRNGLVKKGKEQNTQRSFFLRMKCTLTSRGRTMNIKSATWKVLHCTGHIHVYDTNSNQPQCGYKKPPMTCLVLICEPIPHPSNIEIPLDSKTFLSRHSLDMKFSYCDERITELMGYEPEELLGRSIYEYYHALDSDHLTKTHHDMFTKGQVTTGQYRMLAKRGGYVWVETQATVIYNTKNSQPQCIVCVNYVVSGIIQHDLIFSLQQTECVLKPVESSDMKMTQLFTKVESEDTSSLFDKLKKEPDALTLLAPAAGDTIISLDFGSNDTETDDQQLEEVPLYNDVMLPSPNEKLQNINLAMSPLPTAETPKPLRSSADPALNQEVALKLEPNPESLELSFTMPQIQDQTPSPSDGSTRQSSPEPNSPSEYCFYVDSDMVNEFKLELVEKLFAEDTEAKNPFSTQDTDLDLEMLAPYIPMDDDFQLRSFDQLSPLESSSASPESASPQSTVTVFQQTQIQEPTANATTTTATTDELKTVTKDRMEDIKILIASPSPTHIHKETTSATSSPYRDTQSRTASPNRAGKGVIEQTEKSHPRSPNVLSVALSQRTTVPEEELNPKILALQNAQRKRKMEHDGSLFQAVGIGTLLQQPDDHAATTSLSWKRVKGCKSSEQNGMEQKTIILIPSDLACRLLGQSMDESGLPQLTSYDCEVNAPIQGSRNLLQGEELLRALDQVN
Method: (§1) ARPE-19 cells (Human retinal pigment epithelial cells, ATCC CRL-2302) were cultured in DMEM/F12 (LM002-08, Welgene) medium containing 10% fetal bovine serum (FBS, 16000-044, Gibco) in an incubator at 37°C with 5% carbon dioxide. When the cells grew sufficiently, they were cultured in experimental culture dishes for protein isolation and medium supernatant acquisition.
(§2) Cells were detached from the culture dish using TrypLE™ Express (Gibco). After centrifugation at 1000 rpm for 3 minutes, the supernatant was removed. The cells were counted and seeded into new culture dishes. Normoxic conditions were maintained by culturing the cells in a 37°C incubator with 5% carbon dioxide, and hypoxic conditions were maintained by culturing the cells in a hypoxic incubator with 1% oxygen, 5% carbon dioxide, and 94% nitrogen gas.
In a disease of macular degeneration, hypoxia is a very important condition, and since the expression of downstream genes is regulated by HIF-1α, a transcription factor that is stabilized in hypoxic conditions, the following experiment was conducted to confirm this.
Mixed hypoxic condition was used for HIF-1α stability experiments, in which hypoxia was induced with 1% oxygen and the stability of HIF-1α was enhanced by treatment with cobalt chloride (CoCl2).
The compounds of each Example were diluted to 0.1 nM, 1 nM, 3 nM, 10 nM, 30 nM, 100 nM, 300 nM, 1 µM, and 10 µM in DMEM/F12 medium without fetal bovine serum, pretreated for 16 hours or 2 hours, and cultured for 1 hour or 24 hours in a mixed hypoxic condition. The cell medium was discarded, and protein lysates were obtained by rapidly treating with protein lysis buffer (RIPA Lysis and Extraction buffer, Thermo Fisher Scientific). LDS (4X Bolt ™ LDS Sample buffer) and reducing agent (10X Bolt ™ Sample Reducing Agent) were added together to the protein lysate, and heated at 70°C for 10 minutes. The lysate was separated by electrophoresis on a 4-12% Bis-Tris gel, transferred to a PVDF membrane, and blocked with 3% BSA (Albumin, Bovine, Fraction V, MPbio). The membrane was incubated overnight at 4°C with a mixture of anti-HIF-1α (ab179483, abcam) and anti-b-actin (MA515739, Invitrogen) antibodies at a ratio of 1:4000. The following day, the membrane was treated with a peroxidase-conjugated secondary antibody for 1 hour at room temperature, and the target protein was expressed using an ECL solution (Clarity ™ Western ECL substrate, Bio-rad) and quantified.
Based on the results of the expression level of HIF-1α in cells treated with compounds diluted from 10 µM to 0.1 nM, the concentration range of the compound at which the expression level of HIF-1α was reduced by 50% or less compared to the untreated control group was derived.

VEGF = assay: Evaluation of VEGF protein secretion level (Human VEGF ELISA) in ARPE-19 cell medium under hypoxic conditions; format: cell-based
Method: as §1, §2
The expression of the downstream gene, angiogenesis inducer VEGF, is regulated by HIF-1α, a major transcription factor under hypoxic conditions, and the level of secreted VEGF protein can be quantitatively confirmed through ELISA (Enzyme Linked Immunosorbent Assay, Human VEGF Quantikine ELISA Kit, R&D systems). For this purpose, the following experiment was conducted.
The compounds of each Example were diluted to 0.1 nM, 1 nM, 3 nM, 10 nM, 30 nM, 100 nM, 300 nM, 1 µM and 10 µM in DMEM/F12 medium containing 1% fetal bovine serum, pretreated for 2 hours, and cultured for 24 hours under hypoxic conditions to obtain the cell medium supernatant. The supernatant was centrifuged at 1000 rpm for 3 minutes, and a specific amount was treated with a VEGF ELISA assay kit and the absorbance value was measured at 450 nm to quantitatively confirm the level of VEGF protein (see Table 1 below).
Based on the results of secreted VEGF protein expression levels in cell media treated with compounds diluted at concentrations ranging from 10 µM to 0.1 nM, the concentration range of the compound at which the secreted VEGF protein level was reduced by 50% or less compared to the untreated control group was derived.

[1] = values marked * in the table, mixed hypoxic condition (1% oxygen + CoCl2) for 24 hours, read-out: IC50 HIF-1α, Hypoxia(24h)
[2] = ARPE-19 cells, pretreated 2 hours, 24 hours hypoxic conditions, secreted VEGF in medium supernatant by ELISA, concentration range reducing VEGF by 50% vs untreated control, read-out: IC50 VEGF
[3] = mixed hypoxic condition (1% oxygen + CoCl2) for 1 hour, read-out: IC50 HIF-1α Hypoxia (1 hour)
[4] = ARPE-19 cells, pretreated 2 hours, 24 hours hypoxic conditions, ELISA, read-out: concentration at which the secreted VEGF protein level was suppressed to less than 50%
[5] = Experimental Example 2 (HIF-1α Western blot), read-out: concentration at which the expression level of VEGF was suppressed to less than 50%

Row | SMILES | DC50 (HIF-1α; [1]) [nM] | IC50 (VEGF; [2]) [nM] | DC50 (HIF-1α; [3]) [nM] | IC50 (VEGF; [4]) [nM] | IC50 (VEGF; [5]) [nM]
1 | O=C(NCc1cc(F)cc(-c2cnn(-c3ccc(F)cc3)c2)c1)c1ncnc2nc(C3CCC(F)(F)C3)[nH]c12 (single isomer, unassigned) [84(E1), 8-(3,3-Difluorocyclopentyl)-N-(3-fluoro-5-(1-(4-fluorophenyl)-1H-pyrazol-4-yl)benzyl)-7H-purine-6-carboxamide] | < 100 | < 100 |  |  | 
2 | O=C(NCc1cc(F)cc(-c2cnn(-c3ccc(F)cc3)c2)c1)c1ncnc2nc(C3CC(F)C3)[nH]c12 (single isomer, unassigned) [102(A), N-(3-Fluoro-5-(1-(4-fluorophenyl)-1H-pyrazol-4-yl)benzyl)-8-(3-fluorocyclobutyl)-7H-purine-6-carboxamide] | 1000 to 10000 | > 10000 |  |  | 
3 | O=C(NCc1cc(F)cc(-c2cnn(-c3ccc(F)cc3)c2)c1)c1ncnc2nc(C3CC(F)C3)[nH]c12 (single isomer, unassigned) [102(B), N-(3-Fluoro-5-(1-(4-fluorophenyl)-1H-pyrazol-4-yl)benzyl)-8-(3-fluorocyclobutyl)-7H-purine-6-carboxamide] | 100 to 1000 | 100 to 1000 |  |  | 
4 | COC(=O)C1CC(c2nc3ncnc(C(=O)NCc4cc(F)cc(-c5cnn(-c6ccc(F)cc6)c5)c4)c3[nH]2)C1 (single isomer, unassigned) [103(A), Methyl 3-(6-((3-fluoro-5-(1-(4-fluorophenyl)-1H-pyrazol-4-yl)benzyl)carbamoyl)-7H-purin-8-yl)cyclobutanecarboxylate] | > 10000 | > 10000 |  |  | 
5 | COC(=O)C1CC(c2nc3ncnc(C(=O)NCc4cc(F)cc(-c5cnn(-c6ccc(F)cc6)c5)c4)c3[nH]2)C1 (single isomer, unassigned) [103(B), Methyl 3-(6-((3-fluoro-5-(1-(4-fluorophenyl)-1H-pyrazol-4-yl)benzyl)carbamoyl)-7H-purin-8-yl)cyclobutanecarboxylate] | > 10000 | > 10000 |  |  | 
6 | O=C(NCc1cc(F)cc(-c2cnn(-c3ccc(F)cc3)c2)c1)c1ncnc2nc(C3CCC(F)C3)[nH]c12 (single isomer, unassigned) [110(A), N-(3-Fluoro-5-(1-(4-fluorophenyl)-1H-pyrazol-4-yl)benzyl)-8-(3-fluorocyclopentyl)-7H-purine-6-carboxamide] | < 100 | 100 to 1000 |  |  | 
7 | O=C(NCc1cc(F)cc(-c2cnn(-c3ccc(F)cc3)c2)c1)c1ncnc2nc(C3CCC(F)C3)[nH]c12 (single isomer, unassigned) [110(B), N-(3-Fluoro-5-(1-(4-fluorophenyl)-1H-pyrazol-4-yl)benzyl)-8-(3-fluorocyclopentyl)-7H-purine-6-carboxamide] | < 100 | 100 to 1000 |  |  | 
8 | O=C(NCc1cc(F)cc(-c2cnn(C(F)(F)F)c2)c1)c1ncnc2nc(C3CCCC3)[nH]c12 [Example 1, 8-Cyclopentyl-N-(3-fluoro-5-(1-(trifluoromethyl)-1H-pyrazol-4-yl)benzyl)-7H-purine-6-carboxamide] |  | 100 to 1000 | < 100 |  | 
9 | O=C(NCc1cc(F)cc(-c2cnn(CC(F)F)c2)c1)c1ncnc2nc(C3CCCC3)[nH]c12 [Example 2, 8-Cyclopentyl-N-(3-(1-(2,2-difluoroethyl)-1H-pyrazol-4-yl)-5-fluorobenzyl)-7H-purine-6-carboxamide] |  | 100 to 1000 | < 100 |  | 
10 | O=C(NCc1cc(F)cc(-c2cnn(CC(F)(F)F)c2)c1)c1ncnc2nc(C3CCCC3)[nH]c12 [Example 3, 8-Cyclopentyl-N-(3-fluoro-5-(1-(2,2,2-trifluoroethyl)-1H-pyrazol-4-yl)benzyl)-7H-purine-6-carboxamide] |  | 100 to 1000 | < 100 |  | 
11 | C[C@H](NC(=O)c1ncnc2nc(C3CCCC3)[nH]c12)c1cccc(-c2cnn(C)c2)c1 [Example 4, (S)-8-cyclopentyl-N-(1-(3-(1-methyl-1H-pyrazol-4-yl)phenyl)ethyl)-7H-purine-6-carboxamide] |  | 1000 to 10000 | 100 to 1000 |  | 
12 | Cn1cc(C(=O)Nc2cc(F)cc(CNC(=O)c3ncnc4nc(C5CCCC5)[nH]c34)c2)cn1 [Example 5, 8-Cyclopentyl-N-(3-fluoro-5-(1-methyl-1H-pyrazole-4-carboxamido)benzyl)-7H-purine-6-carboxamide] |  | 1000 to 10000 | 100 to 1000 |  | 
13 | O=C(NCc1cc(F)cc(-c2cnn(-c3ccccc3)c2)c1)c1ncnc2nc(C3CCCC3)[nH]c12 [Example 7, 8-Cyclopentyl-N-(3-fluoro-5-(1-phenyl-1H-pyrazol-4-yl)benzyl)-7H-purine-6-carboxamide] |  | 100 to 1000 | < 100 |  | 
14 | Cn1cc(Nc2cc(F)cc(CNC(=O)c3ncnc4nc(C5CCCC5)[nH]c34)c2)cn1 [Example 8, 8-Cyclopentyl-N-(3-fluoro-5-((1-methyl-1H-pyrazol-4-yl)amino)benzyl)-7H-purine-6-carboxamide] |  | 100 to 1000 | < 100 |  | 
15 | O=C(NCc1cc(F)cc(-c2cnn(Cc3ccccc3)c2)c1)c1ncnc2nc(C3CCCC3)[nH]c12 [Example 9, N-(3-(1-benzyl-1H-pyrazol-4-yl)-5-fluorobenzyl)-8-cyclopentyl-7H-purine-6-carboxamide] |  | 100 to 1000 | < 100 |  | 
16 | O=C(NCc1cc(F)cc(Nc2cccnc2)c1)c1ncnc2nc(C3CCCC3)[nH]c12 [Example 10, 8-Cyclopentyl-N-(3-fluoro-5-(pyridin-3-ylamino)benzyl)-7H-purine-6-carboxamide] |  | 100 to 1000 | < 100 |  | 
17 | O=C(NCc1cc(F)cc(-c2cn[nH]c2)c1)c1ncnc2nc(C3CCCC3)[nH]c12 [Example 11, 8-Cyclopentyl-N-(3-fluoro-5-(1H-pyrazol-4-yl)benzyl)-7H-purine-6-carboxamide] |  | < 100 | < 100 | < 100 | < 100
18 | O=C(NCc1cc(F)cc(-c2cnn(-c3ccncc3)c2)c1)c1ncnc2nc(C3CCCC3)[nH]c12 [Example 12, 8-Cyclopentyl-N-(3-fluoro-5-(1-(pyridin-4-yl)-1H-pyrazol-4-yl)benzyl)-7H-purine-6-carboxamide] |  | < 100 | < 100 | < 100 | < 100
19 | O=C(NCc1cccc(F)c1)c1ncnc2nc(C3CCCC3)[nH]c12 [Example 13, 8-Cyclopentyl-N-(3-fluorobenzyl)-7H-purine-6-carboxamide] |  | 100 to 1000 | < 100 |  | 
20 | O=C(NCc1cc(F)cc(Nc2ccccc2)c1)c1ncnc2nc(C3CCCC3)[nH]c12 [Example 15, 8-Cyclopentyl-N-(3-fluoro-5-(phenylamino)benzyl)-7H-purine-6-carboxamide] |  | 100 to 1000 | < 100 |  | 
21 | O=C(NCc1cc(F)cc(-c2cnn(-c3ccc(F)cc3)c2)c1)c1ncnc2nc(C3CCC(F)(F)C3)[nH]c12 (stereo not shown) [Example 84, 8-(3,3-Difluorocyclopentyl)-N-(3-fluoro-5-(1-(4-fluorophenyl)-1H-pyrazol-4-yl)benzyl)-7H-purine-6-carboxamide] |  |  |  | < 100 | < 100
